Two compounds from patent publication US8313763B2, “Sustained delivery formulations of rapamycin compounds” (Tolmar Therapeutics, Inc., priority 2004, dated 2012) can be followed below.

For assay [1], the system named is choroidal neovascularization (CNV). Briefly: Laser-induced CNV model, fluorescein angiography evaluation of leaky CNV. The class given is in vivo, Long Evans rats. Particulars: for incidence of developing leaky CNV 2 weeks after laser photocoagulation: vehicle 83%. On the procedure: (§1) Thermal laser infrared light (diode laser 810 nm) at 200 mW for 0.075 seconds was delivered to the fundus of Long Evans rats using a slit lamp and a slit lamp adaptor. A total of 6 lesions with 75 μm diameter were placed in a circular pattern surrounding the optic disc on the posterior pole.
(§2) Intravitreal injection was performed immediately after laser photocoagulation. Briefly, three days prior to the injection, 0.3% Ciloxan ointment was applied to the eye once daily. At the time of injection, the eye pocket was irrigated and the conjunctiva swabbed with 1.0% Betadine solution. A 30-gauge needle connected to a 10-μL Hamilton syringe that contained 5 μL carboxymethylcellulose (CMC)-based Rapamycin suspension (0.5, 5, 10 or 40 mg/mL) or CMC vehicle alone was inserted 1 mm posterior to the corneoscleral limbus. The injection began when the bevel of the needle faced down and reached the vitreous about 1-2 mm in depth with the visual aid of a dissecting microscope. After injection, topical 0.3% Ciloxan ointment was applied to the eye once daily for 2 days.
FA was performed on the 14th day after intravitreal injection of Rapamycin. Briefly, a 25-gauge butterfly catheter was placed in the tail vein on an anesthetized animal and a Heparin-Lock solution (0.50 mL of 10,000 IU/mL Heparin Sodium with 0.95 mL 0.9% Saline) was used to fill the catheter line to maintain intravenous access. A dose of 10 mg/kg of Diofluor 10% (Fluorescein Sodium 10%) was delivered through the tail vein, followed by a flush of sterile saline to ensure full delivery of Diofluor 10%. An infusion pump (Becton-Dickinson) connected to a 60 cc syringe was used to infuse the Diofluor 10% at a constant rate of 6 mL/min (8.4-13.2 pounds per square inches) to allow for consistency in the synchronization of the fluorescein bolus injection and the angiogram acquisition. Photographs were taken with a fluorescence fundus camera at 1-10, 30, 60, 90, 180, and 300 sec after Diofluor 10% administration. The leakiness of CNV was assessed by two independent readers masked to the treatment.

For assay [2] the test system is unchanged. Briefly: Laser-induced CNV model, histological evaluation (CNV area, CD31-positive cell count). The class given is in vivo, Long Evans rats. On the procedure: as §1
Intravitreal injection was performed immediately after laser photocoagulation. Briefly, three days prior to the injection, 0.3% Ciloxan ointment was applied to the eye once daily. At the time of injection, the eye pocket was irrigated and the conjunctiva swabbed with 1.0% Betadine solution. […] The injection began when the bevel of the needle faced down and reached the vitreous about 1-2 mm in depth with the visual aid of a dissecting microscope. After injection, topical 0.3% Ciloxan ointment was applied to the eye once daily for 2 days.
Eyes were enucleated and chorioretinal tissues that contained the CNV lesions prepared and fixed for about 18 hours in formic acid alcohol, and then replaced with 70% alcohol until the specimen was processed to wax by a standard method. Slides were stained with mouse anti rat CD31 (Chemicon, UK) by a standard immunohistochemistry protocol. This briefly consisted of removal of endogenous peroxidase enzymes with methanol and hydrogen peroxide, primary antibody as above, and the secondary donkey antibody anti mouse conjugated to biotin. Streptavidin ABC and Vector VIP substrate (Vector labs, Burlingame Calif.) were further added. Haematoxylin was used as a counterstain. Representative images before and after the center of each CNV lesion were taken using the 20× objective of an Olympus BX61 microscope fitted with a Spot RT colour camera (Diagnostic instruments, MI USA). Each image was applied to the standard image analysis macro in the software Image pro to identify the mean of lesion area for each CNV and the mean of CD31 positive cell counts (i.e. endothelial cells) within the CNV lesion area. All measurements were generated by two independent readers masked to the treatments. The data was analyzed in Excel and GraphPad Prism. The 80% correlation found between readers was deemed acceptable.

The subject of assay [3] is Ser235/236 phosphorylation of S6 ribosomal protein (downstream target of mTOR). Briefly: Pharmacodynamic evaluation: S6 phosphorylation in chorioretinal tissues by western blot. It is filed as in vivo, rat. On the procedure:
as §2
Upon euthanasia of the animal, the eyes were cut along the equator, separating the anterior and posterior segments. The vitreous was removed and the remaining back of eye (with intact retina, choroid and sclera) was placed in a labeled Nalgene Cryotube, immediately immersed in liquid nitrogen, and stored at −80° C. until ready to use. Upon lysis, tubes containing tissue were brought to room temperature to thaw. […] Protein concentration of each sample was determined using the Pierce BCA Protein Determination Kit (Pierce, CAT #: 23225) and BSA as a standard. Samples were analyzed by SDS-PAGE, followed by western blotting. […] Bound antibodies were detected using ECL or ECL plus Western Blotting Reagents. Densitometric evaluation was performed on blots scanned by Bio-Rad Multi-Analyst Software, and analyzed in MS Excel and GraphPad Prism.
Rapamycin inhibits mTOR activity, which then down-regulates Ser235/236 phosphorylation of the downstream target of mTOR, the S6 ribosomal protein. In order to evaluate the pharmacodynamic response of intravitreally administered rapamycin in the eye, the serine phosphorylation of S6 protein extracted from chorioretinal tissues was analyzed by western blot, and standardized by the total amount of S6 protein. […]

The test system of assay [4] is Human umbilical endothelial cells. Briefly: VEGF-activated endothelial cell proliferation, [3H]-thymidine incorporation. Particulars: [3H]-thymidine incorporation after 48 hours. It is filed as cell-based. The procedure: (§3) Targeted tissue concentrations were estimated from in vitro experiments assessing the inhibitory effects of rapamycin on endothelial cell proliferation and cytokine release from immune cells. Human umbilical endothelial cells were activated with Vascular Endothelial Growth Factor (VEGF) and incubated with various concentrations of rapamycin. Cell proliferation was evaluated by quantifying [3}H-thymidine incorporation after 48 hours. […] The IC50 for the release of TNFalpha from Lipopolysaccharide and IFNgamma treated THP-1 cells (monocytic cell line) was ˜1 nM and the IC50 for the release of IFNgamma from human peripheral blood T cells stimulated with phytohemagglutanin was ˜2 nM.

In assay [5] the test system is THP-1 cells (monocytic cell line). Briefly: TNFalpha release from Lipopolysaccharide and IFNgamma treated THP-1 cells. It is filed as cell-based. Particulars: Homo sapiens. The procedure: as §3
The subject of assay [6] is human peripheral blood T cells. Briefly: IFNgamma release from phytohemagglutanin-stimulated T cells. It is filed as cell-based. As to conditions: T-cell, T cells stimulated with phytohemagglutanin. On the procedure: as §3

Bounds are passed on as bounds.

For `CC1(C)O[C@@H]2C[C@H]3[C@@H]4CCC5=CC(=O)C=C[C@]5(C)[C@@]4(F)[C@@H](O)C[C@]3(C)[C@]2(C(=O)CO)O1` [triamcinolone acetonide], the “incidence of leaky CNV at the 14-day follow-up” value in assay [1] (intravitreal dose of 200 μg, positive control) is on record as 10%. Also, in assay [2] (TA, intravitreal 200 μg), the “inhibition of CNV area” value is given as “approximately 50%” and the “inhibition of endothelial cell count” value was about 60%.
For the compound `CO[C@H]1C[C@@H]2CC[C@@H](C)[C@@](O)(O2)C(=O)C(=O)N2CCCC[C@H]2C(=O)O[C@H]([C@H](C)C[C@@H]2CC[C@@H](O)[C@H](OC)C2)CC(=O)[C@H](C)/C=C(\C)[C@@H](O)[C@@H](OC)C(=O)[C@H](C)C[C@H](C)/C=C/C=C/C=C/1C` [rapamycin, Rapamycin], the “response in the rat model of laser-induced CNV” value in assay [1] (5 μg intravitreally injected) was “nearly a complete response”. Also, the “incidence of developing leaky CNV 2 weeks after laser photocoagulation” value in assay [1] (single intravitreal injection of 0.5 μg rapamycin in CMC) stood at 65%; in assay [1] (single intravitreal injection of 5 μg rapamycin in CMC), 5%; in assay [1] (single intravitreal injection of 50 μg rapamycin in CMC), 2%. For the same compound, the “reduction in CNV area compared to the vehicle group” value in assay [2] (0.5 μg intravitreal) came to 15%; in assay [2] (5 μg intravitreal), 55%; in assay [2] (50 μg intravitreal), 50%. In addition, in assay [2] (50 μg, 5 μg and 0.5 μg intravitreal, overall), the “overall reduction in the number of endothelial cells within the CNV area compared to the vehicle group” value was 50-60%. The “level of phosphorylated Ser235/236 on S6 ribosomal protein, standardized by total S6” value in assay [3] (chorioretinal tissues, day 1, 3 and 7 post-dosing, vs untreated or vehicle-injected eyes, FIG. 10) is recorded as “significantly reduced”. The “onset of inhibitory effect on S6 phosphorylation” value in assay [3] (intravitreal, rat) is given as at most 24 h. In assay [3] (post-dosing, longest follow-up timepoint), the “duration of inhibitory effect on S6 phosphorylation” value is 7 days. The IC50 is 69 nM in assay [4], about 1 nM in assay [5] and about 2 nM in assay [6].
